Test results as given in patent publication US9593148B2, “DPP8 and DPP9 peptide inhibitors” (GEORG-AUGUST-UNIVERSITAT GOTTINGEN STIFTUNG OFFENTLICHEN …, priority 2012, dated 2017).
No end group written: not given here.

Assays:
DPP9 [1] = biological target: T1, DPP9 (Homo sapiens, UniProt Q86TI2); assay: Inhibition of GP-AMC hydrolysis by purified recombinant DPP9 at a single peptide concentration; format: biochemical; conditions: 25 nM DPP9, 0.2 mM GP-AMC, 10 μM peptide; DPP9 alone = 100.3
T1 construct: made in house; host or cells: Sf9 insect cells (baculovirus)
T1 sequence (Q86TI2 1-892 isoform Q86TI2-2): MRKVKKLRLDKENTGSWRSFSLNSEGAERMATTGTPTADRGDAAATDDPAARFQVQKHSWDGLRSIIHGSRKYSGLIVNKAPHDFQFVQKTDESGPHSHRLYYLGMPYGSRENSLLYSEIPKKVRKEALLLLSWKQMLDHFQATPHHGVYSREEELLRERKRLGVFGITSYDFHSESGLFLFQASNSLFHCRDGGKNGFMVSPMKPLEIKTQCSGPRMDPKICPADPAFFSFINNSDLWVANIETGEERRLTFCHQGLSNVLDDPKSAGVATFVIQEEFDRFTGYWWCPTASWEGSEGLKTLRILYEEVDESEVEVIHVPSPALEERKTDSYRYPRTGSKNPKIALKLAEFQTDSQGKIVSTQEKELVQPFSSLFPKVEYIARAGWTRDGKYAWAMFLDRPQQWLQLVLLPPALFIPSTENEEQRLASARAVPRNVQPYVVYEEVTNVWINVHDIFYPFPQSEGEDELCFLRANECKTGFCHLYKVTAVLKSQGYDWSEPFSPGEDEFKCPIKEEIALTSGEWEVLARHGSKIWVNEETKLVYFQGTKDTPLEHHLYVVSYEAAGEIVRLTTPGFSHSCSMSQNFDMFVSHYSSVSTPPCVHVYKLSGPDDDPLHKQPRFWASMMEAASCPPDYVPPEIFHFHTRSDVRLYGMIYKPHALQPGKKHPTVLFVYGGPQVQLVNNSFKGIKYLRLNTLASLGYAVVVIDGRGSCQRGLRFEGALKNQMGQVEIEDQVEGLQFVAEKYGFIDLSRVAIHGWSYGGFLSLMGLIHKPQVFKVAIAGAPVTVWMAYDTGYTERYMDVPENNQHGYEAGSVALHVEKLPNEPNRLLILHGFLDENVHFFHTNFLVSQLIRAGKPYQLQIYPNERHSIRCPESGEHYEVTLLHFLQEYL
Experimental: Accordingly, the peptide is capable of inhibiting the activity of wild-type DPP9 (SEQ ID NO: 6) to a level of 35 to 5% of the activity of wild-type DPP9 (SEQ ID NO: 6) if not inhibited, as determined in an assay using 25 nM purified DPP9, 0.2 mM GP-AMC, and 14 μM of the peptide to be tested, in TB buffer (20 mM Hepes/KOH pH 7.3, 110 mM potassium acetate, 2 mM Mg acetate, 0.5 mM EGTA), supplemented with 0.2% Tween-20, 1 mM dithiothreitol. Release of AMC from GP-AMC is measured using the Appliskan microplate fluorimeter (Thermo Scientific) with 380 nm (excitation) and 480 nm (emission) filters and the Skanit software, and analysed using the Prism software.
(§1) Kinetics assays: Purified recombinant DPP9 (25 nM) was incubated with varying concentrations of GP-AMC, in TB supplemented with 0.2% Tween-20, 1 mM ditiothreitol. For inhibition assays, inhibitory peptides were added directly to the reaction mixture. For activation by SUMO 0.2 mg/ml BSA, was added to the buffer to prevent non specific binding. DPP9 were incubated with 2.5 μM of either SUMO1, SUMO1 E67A, SUMO2 for 2 hour on ice prior to the assay. Alternatively DPP9 was incubated with 1 μM of RanGAP or RanGAP modified with either SUMO1 or SUMO2 for 2 hours prior to the assay. Fluorescence was measured using the Appliskan microplate fluorimeter (Thermo Scientific) with 380 nm (excitation) and 480 nm (emission) filters and the Skanit software, and analysed using the Prism software. Each experiment was performed at least three times, in replicates of four.
To improve the inhibition of DPP9, the inventors tested several peptide libraries composed of truncated variants of the EIL peptide (>80% pure, ordered from Genescript). These peptides were incubated with recombinant DPP9 and analysed GP-AMC hydrolysis. AMC release was then compared to samples containing either DPP9 alone, or the EIL peptide.

HeLa cells [2] = assay: MTT proliferation assay of HeLa cells expressing the peptide; format: cell-based, human; conditions: Ubiquitin-SLRFLYEG-YFP construct, 32 hours after transfection, vs control plasmid or mock
Experimental: To test whether DPP8/9 inhibition effects cell viability, the inventors performed MTT (3-4,5-dimethylthiazol-2-yl)-2,5-diphenyltetrazolium bromide) based assays, which are widely used to measure cell proliferation and growth (e.g. in clinical settings for testing tumor sensitivity to chemotherapeutic agents). This assay involves the conversion of the water soluble MTT to an insoluble formazan. The formazan is then solubilized in 0.1N HCl. Absorbance is then determined at 570 nm. For a prolonged exposure of cells to the allosteric DPP8/9 inhibitor […] (SEQ ID NO: 38), the inventors cloned the peptide into a mammalian expression vector pEYFP-N1 from Clontech. The peptide inhibitor contains a serine at its amino-termini. Thus, to avoid expression of the peptide with a methionine residue at its amino terminus, it was cloned in frame with ubiquitin. Once expressed in cells, the ubiquitin moiety is cleaved by ubiquitin isopeptidases to release the […]-YFP (SEQ ID NO: 38) construct. A control construct was included that lacked the […] (SEQ ID NO: 38) peptide (Ubiquitin-YFP). […] 32 hours after transfection, cells were analyzed via a standard MTT assay.
Briefly, cell media was removed and replaced by 0.5 mg/ml of MTT reagent. […] Absorbance was measured with a microplate fluorimeter. […]

DPPIV = DPPIV (Homo sapiens, UniProt P27487); assay: GP-AMC hydrolysis by DPPIV in the presence of peptide; format: biochemical; conditions: concentrations measured up to 50 μM
DPPIV, sequence (P27487 whole entry): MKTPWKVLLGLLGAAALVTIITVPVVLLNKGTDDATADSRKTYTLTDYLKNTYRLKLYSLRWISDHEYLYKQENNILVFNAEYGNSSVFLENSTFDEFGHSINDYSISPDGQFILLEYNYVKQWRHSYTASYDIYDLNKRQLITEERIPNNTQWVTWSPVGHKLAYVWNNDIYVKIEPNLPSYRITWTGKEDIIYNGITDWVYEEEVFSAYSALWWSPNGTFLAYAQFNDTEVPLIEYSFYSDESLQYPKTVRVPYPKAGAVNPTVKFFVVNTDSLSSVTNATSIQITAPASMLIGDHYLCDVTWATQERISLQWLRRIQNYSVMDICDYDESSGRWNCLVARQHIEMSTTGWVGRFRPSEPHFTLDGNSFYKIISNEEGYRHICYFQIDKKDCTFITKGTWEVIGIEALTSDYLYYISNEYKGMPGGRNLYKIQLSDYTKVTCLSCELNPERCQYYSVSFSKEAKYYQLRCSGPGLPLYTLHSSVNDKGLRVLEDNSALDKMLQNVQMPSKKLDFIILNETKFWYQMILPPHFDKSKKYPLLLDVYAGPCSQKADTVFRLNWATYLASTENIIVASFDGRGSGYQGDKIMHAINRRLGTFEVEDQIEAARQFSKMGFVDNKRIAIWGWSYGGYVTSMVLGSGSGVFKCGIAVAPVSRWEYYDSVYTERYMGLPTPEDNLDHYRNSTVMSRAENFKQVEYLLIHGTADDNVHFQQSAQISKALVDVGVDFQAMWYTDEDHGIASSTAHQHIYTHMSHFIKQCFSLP
Experimental: Preferably, the peptide is capable of inhibiting the activity by wild-type DPP9 (SEQ ID NO: 6) to a level of 30 to 5%, 29 to 5%, 28 to 5%, 27 to 5%, 26 to 5%, 25 to 5%, 24 to 5%, 23 to 5%, 22 to 5%, 21 to 5%, 20 to 5%, 19 to 5%, 18 to 5%, 17 to 5%, 16 to 5%, 15 to 5%, 14 to 5%, 13 to 5%, 12 to 5%, 11 to 5%, 10 to 5%, 9 to 5%, 8 to 5%, such as 7.5 to 5% of the activity of wild-type DPP9 (SEQ ID NO: 6) if not inhibited. […] Release of AMC from GP-AMC is measured using the Appliskan microplate fluorimeter (Thermo Scientific) with 380 nm (excitation) and 480 nm (emission) filters and the Skanit software, and analysed using the Prism software.
(§2) A&B 25 nM purified recombinant (A) DPP9 or (B) DPP8 were incubated with varying concentrations of the EIL peptide (0, 3.3 μM and 6.6 μM) and tested for hydrolysis of GP-AMC (1000, 500, 250, 125, 0 μM). C. 25 nM DPPIV was tested for the hydrolysis of GP-AMC (500, 250, 125, 0 μM) in the presence of 0 or 13 μM EIL peptide. Fluorescence was measured using the Appliskan microplate fluorimeter (Thermo Scientific) with 380 nm (excitation) and 480 nm (emission) filters and the Skanit software, and analysed using the Prism software. Each experiment was performed at least three times, in replicates of four.

DPP9 [3] = biological target: T1, DPP9; assay: Kinetics assay, Ki for inhibition of DPP9 (GP-AMC hydrolysis); format: biochemical
Experimental: (§3) Enzyme kinetics and the Ki of DPP8 or DPP9 may be determined as follows: 25 nM purified recombinant enzyme (DPP9 or DPP8) are incubated with varying concentrations of GP-AMC ([…] GP-AMC), in TB buffer (20 mM Hepes/KOH pH 7.3, 110 mM potassium acetate, 2 mM Mg acetate, 0.5 mM EGTA), supplemented with 0.2% Tween-20, 1 mM dithiothreitol. Experiments are performed in triplicates. To measure Ki values, for each set of experiments, inhibitory peptides are added to DPP9 or DPP8. Peptide concentrations tested are in the range between 0.04 to 50 μM. Release of AMC from GP-AMC is measured using the Appliskan microplate fluorimeter (Thermo Scientific) with 380 nm (excitation) and 480 nm (emission) filters and the Skanit software, and analysed using the Prism software.
as §2, §1

DPP8 = biological target: T2, DPP8 (Homo sapiens, UniProt Q6V1X1); assay: Kinetics assay, Ki for inhibition of DPP8 (GP-AMC hydrolysis); format: biochemical
T2 construct: made in house; host or cells: Sf9 insect cells (baculovirus)
T2 sequence (Q6V1X1 whole entry): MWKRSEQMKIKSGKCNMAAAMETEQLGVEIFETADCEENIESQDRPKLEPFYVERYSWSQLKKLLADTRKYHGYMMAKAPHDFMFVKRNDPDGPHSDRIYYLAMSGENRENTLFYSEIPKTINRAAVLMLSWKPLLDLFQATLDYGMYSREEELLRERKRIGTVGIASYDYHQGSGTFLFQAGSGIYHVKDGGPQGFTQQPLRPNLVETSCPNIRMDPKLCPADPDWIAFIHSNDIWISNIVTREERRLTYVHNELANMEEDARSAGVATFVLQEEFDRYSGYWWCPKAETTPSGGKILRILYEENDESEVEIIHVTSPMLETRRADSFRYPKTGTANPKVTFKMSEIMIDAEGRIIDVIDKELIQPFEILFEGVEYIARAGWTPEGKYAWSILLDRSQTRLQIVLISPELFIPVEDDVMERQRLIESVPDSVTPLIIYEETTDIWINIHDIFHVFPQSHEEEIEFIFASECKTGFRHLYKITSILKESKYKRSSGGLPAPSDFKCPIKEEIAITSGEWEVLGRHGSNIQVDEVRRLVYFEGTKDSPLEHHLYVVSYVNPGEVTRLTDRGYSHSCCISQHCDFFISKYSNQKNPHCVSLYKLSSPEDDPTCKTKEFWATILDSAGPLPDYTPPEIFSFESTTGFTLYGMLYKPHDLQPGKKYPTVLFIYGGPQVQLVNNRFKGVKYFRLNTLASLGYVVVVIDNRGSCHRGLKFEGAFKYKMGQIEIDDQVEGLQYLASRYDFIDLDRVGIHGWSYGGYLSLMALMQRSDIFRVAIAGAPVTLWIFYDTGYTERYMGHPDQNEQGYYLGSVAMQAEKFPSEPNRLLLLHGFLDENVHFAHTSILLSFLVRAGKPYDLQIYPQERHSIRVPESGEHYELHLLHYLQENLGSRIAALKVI
Experimental: as §3, §2

HeLa cells [4] = assay: Cytosolic prolyl peptidase activity of HeLa cells treated with peptide alone or with Pep-1; format: cell-based, human; conditions: 5 μM peptide, 30 min, also in the absence of carrier peptide Pep-1
Experimental: In another experiment, HeLa cells were treated for 30 minutes with either 5 μM […] (SEQ ID NO: 38) alone or in complex with the carier peptide Pep-1. Cells were then typsinized and cytosolic extracts were prepared and tested for cleavage of the model substrate GP-AMC. Upper panel: […] (SEQ ID NO: 38) was allowed to form a complex with carrier peptide Pep-1 at a molar ratio of 1:10 (cargo:carrier) in FCS free DMEM for 30 min at 37° C. Lower panel: As a comparison, the inhibitory peptide […] was used also in the absence of carrier peptide, at the same concentration. For control, the solvent DMSO was used. These mixtures were overlaid onto HeLa cells allowing the entry for 30 minutes at 37° C. Cells were then trypsinized and lysed in TB buffer containing 0.2% Tween. After ultracentrifugation, the cytosolic extract were probed for DPP activity using […] of the fluorogenic substrate GP-AMC. Each experiment was performed in triplicates.

HEK293 cells = assay: Cytosolic prolyl peptidase activity of HEK293 cells treated with peptide plus carrier Peptide 1; format: cell-based, human; conditions: 5 μM peptide with 100 μM Peptide 1, 30 min, 5 μg extract, 500 μM GP-AMC
Experimental: Cells were incubated for 30 minutes with 0 μM, 5 μM or 10 μM […] (SEQ ID NO: 40) and 100 μM carrier pep-1. Cytosolic extracts of cells (5 μg) were then tested for hydrolysis of 0.5 mM GP-AMC.
The inventors tested whether the inhibitory peptides can be inserted into cells. For this purpose the inventors established a method using a well characterized carrier peptide: Peptide 1 ([…]; SEQ ID NO: 48), in combination with […] (SEQ ID NO: 40). To test for effective inhibition, the inventors measured for hydrolysis of an artificial DPP8 and DPP9 substrate: GP-AMC, specifically in cytosolic extracts. For this, 5 μM or 10 μM of […] (SEQ ID NO: 40) were incubated with 100 μM Peptide 1, at 37° C. for 30 minutes, in […] DMEM without FCS, supplemented with glutamine and antibiotics. Once a complex was formed between the […] (SEQ ID NO: 40) and peptide 1, it was added to HEK293 cells (human embryonic kidney cells), grown in 24 well plates (50% confluence), and incubated for 30 minutes at 37° C. Cells were then trypsinized and washed twice with PBS buffer. Cell pellet was shock frozen in liquid nitrogen. […] Fluorescence was measured using the Appliskan microplate fluorimeter (Thermo Scientific) with 380 nm (excitation) and 480 nm (emission) filters and the Skanit software, and analysed using the Prism software.

SUMO1-DPP9 interaction = biological target: T3, SUMO1-DPP9 interaction (Homo sapiens, UniProt P63165); assay: ELISA: competition of SUMO1 binding to immobilized DPP9; conditions: SUMO1 pre-incubated with varying concentrations of peptide
T3 construct: made in house; DPP9: Sf9 insect cells
T3 sequence (P63165 2-97 limits assumed): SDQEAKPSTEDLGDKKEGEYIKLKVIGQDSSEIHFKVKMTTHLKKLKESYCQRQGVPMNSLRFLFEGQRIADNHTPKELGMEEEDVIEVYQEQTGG
Experimental: A. HA-tagged DPP9 mutants (DPP9V285A, DPP9V287A, DPP9I288A and DPP9V290) were expressed in HEK293T cells and purified using anti-HA beads agarose. Purified DPP9 proteins (input) were then incubated with SUMO1-immobilized beads. Bound DPP9 was eluted and analysed by western blotting using anti HA antibodies. B. Alignment of the amino-acid sequences corresponding to the ‘arms’ of DPP9 (SEQ ID NO: 3), DPP8 (SEQ ID NO: 4) and DPPIV (SEQ ID NO: 5). C A homology model of DPP9 (published by (Park et al., 2008)), shown from the ‘back’ side and the ‘front’ (180° rotation) side, which also reveal the so-called side opening. Color code: the hydrolase domain is dark grey, the eight-bladed propeller is light grey and the extended SUMO-binding-arm is indicated. D. Results of an ELISA assay. […] The SUMO1-peptide mix was then added to immobilized DPP9, and interacting SUMO1 was quantified using SUMO1-specific antibodies.
ELISA: A 96 well plate (Immuno 96 MicroWell™ Solid Plates, Nunc) was coated with 600 ng purified recombinant proteins per well in 100 μl TB, overnight at 4° C. […] Interacting proteins were detected using specific antibodies diluted in ELISA buffer: goat anti DPP9 antibody or anti GMP antibody (SUMO1). […] Absorbance was measured at 420 nm on an Appliskan microplate fluorimeter (Thermo Scientific) and the Skanit software. […]

H-SLRFLYEG
% DPP9 activity (Mean) (DPP9 [1]): 10.92%
reduction in cell proliferation (HeLa cells [2]): at least 50%
inhibitory effect towards DPPIV (DPPIV): no inhibitory effect
fold increased efficiency compared to the EIL peptide (Ki DPP9) (DPP9 [3]): 18.5 fold
Ki (DPP9 [3]; read-out: Ki for DPP9): 0.4 µM
Ki (DPP8): 3.6 µM
fold lower affinity for DPP8 compared to DPP9 (DPP8): 9 fold
cytosolic prolyl peptidase activity after exposure of cells (HeLa cells [4]): inhibits cytosolic prolyl peptidase activity

SLRFLYAG
inhibition of cytosolic prolyl peptidase activity (HEK293 cells): ~30%

VEVIHVPSPALEERKTDSYR (listed as Homo sapiens) [DPP9-arm peptide, peptide corresponding to the extended arm of DPP9 (285-304)]
competition with DPP9 for binding to SUMO1 (SUMO1-DPP9 interaction): competed with DPP9 for binding to SUMO1 in a concentration dependent manner
